What was measured:
[1] = tested on: surface FLT3 expression in MOLM-13, U937, THP-1, MV4-11, and EOL-1 AML cell lines; assay: Surface FLT3 expression in AML cell lines after FLT3 inhibitor treatment; assay type: cell-based, human; conditions: 10 μM, 48 hours
[2] = tested on: FLT3 surface density expression on AML blasts; assay: Surface FLT3 expression by flow cytometry on AML patient blasts; assay type: cell-based, human; conditions: 48 hours, peripheral blood samples
Procedure: FIG. 11 depicts the quantification of FLT3 surface density expression by flow cytometry on AML blasts before and after being treated with Midostaurin for 48 hours.
Further experiments were conducted to determine whether FLT3 expression was increased upon administration of an FLT3 inhibitor. […] FIG. 11 depicts the detection of surface FLT3 expression by flow cytometry in peripheral blood samples of patients who were treated with Midostaurin for 48 hours.

Compound: CO[C@@H]1[C@H](N(C)C(=O)c2ccccc2)C[C@H]2O[C@]1(C)n1c3ccccc3c3c4c(c5c6ccccc6n2c5c31)C(=O)NC4 [Midostaurin]
- FLT3 surface expression in AML cell lines [1]: upregulated
- FLT3 surface expression on AML patient blasts [2]: upregulated

Compound: CCCNc1nc(Nc2ccc(C#N)cc2)ncc1C#CCCCNC(=O)[C@H](C)N(C)C(=O)/C=C/CN(C)C [FF-10101]
- FLT3 surface expression in AML cell lines [1]: upregulated

Compound: Dovitinib [Dovitinib (TKI-258)]
- FLT3 surface expression in AML cell lines [1]: upregulated
